Source: BigSolDB 2.1

CN1CCN(C2=Nc3cc(Cl)ccc3Nc3ccccc32)CC1
solubility (mole fraction) (in 2-ethoxyethanol, 278.15 K): 0.0358
solubility (mole fraction) (in 2-ethoxyethanol, 283.15 K): 0.0391
solubility (mole fraction) (in 2-ethoxyethanol, 288.15 K): 0.0415
solubility (mole fraction) (in 2-ethoxyethanol, 293.15 K): 0.0442
solubility (mole fraction) (in 2-ethoxyethanol, 298.15 K): 0.0476
solubility (mole fraction) (in 2-ethoxyethanol, 303.15 K): 0.0499
solubility (mole fraction) (in 2-ethoxyethanol, 308.15 K): 0.053
solubility (mole fraction) (in 2-ethoxyethanol, 313.15 K): 0.0566
solubility (mole fraction) (in 2-ethoxyethanol, 318.15 K): 0.0612
solubility (mole fraction) (in 2-ethoxyethanol, 323.15 K): 0.0666
solubility (mole fraction) (in 2-methoxyethanol, 278.15 K): 0.0326
solubility (mole fraction) (in 2-methoxyethanol, 283.15 K): 0.0349
solubility (mole fraction) (in 2-methoxyethanol, 288.15 K): 0.0366
solubility (mole fraction) (in 2-methoxyethanol, 293.15 K): 0.0393
solubility (mole fraction) (in 2-methoxyethanol, 298.15 K): 0.0422
solubility (mole fraction) (in 2-methoxyethanol, 303.15 K): 0.0451
solubility (mole fraction) (in 2-methoxyethanol, 308.15 K): 0.048
solubility (mole fraction) (in 2-methoxyethanol, 313.15 K): 0.0508
solubility (mole fraction) (in 2-methoxyethanol, 318.15 K): 0.0546
solubility (mole fraction) (in 2-methoxyethanol, 323.15 K): 0.0596
solubility (mole fraction) (in 2-propoxyethanol, 278.15 K): 0.042
solubility (mole fraction) (in 2-propoxyethanol, 283.15 K): 0.0443
solubility (mole fraction) (in 2-propoxyethanol, 288.15 K): 0.0463
solubility (mole fraction) (in 2-propoxyethanol, 293.15 K): 0.0499
solubility (mole fraction) (in 2-propoxyethanol, 298.15 K): 0.0521
solubility (mole fraction) (in 2-propoxyethanol, 303.15 K): 0.0548
solubility (mole fraction) (in 2-propoxyethanol, 308.15 K): 0.0581
solubility (mole fraction) (in 2-propoxyethanol, 313.15 K): 0.0612
solubility (mole fraction) (in 2-propoxyethanol, 318.15 K): 0.0637
solubility (mole fraction) (in 2-propoxyethanol, 323.15 K): 0.0679
solubility (mole fraction) (in ethanol, 278.15 K): 0.00466
solubility (mole fraction) (in ethanol, 283.15 K): 0.00535
solubility (mole fraction) (in ethanol, 288.15 K): 0.00581
solubility (mole fraction) (in ethanol, 293.15 K): 0.0064
solubility (mole fraction) (in ethanol, 298.15 K): 0.0072
solubility (mole fraction) (in ethanol, 303.15 K): 0.0081
solubility (mole fraction) (in ethanol, 308.15 K): 0.00917
solubility (mole fraction) (in ethanol, 313.15 K): 0.0105
solubility (mole fraction) (in ethanol, 318.15 K): 0.012
solubility (mole fraction) (in ethanol, 323.15 K): 0.0134
solubility (mole fraction) (in ethyl acetate, 278.15 K): 0.00895
solubility (mole fraction) (in ethyl acetate, 283.15 K): 0.01
solubility (mole fraction) (in ethyl acetate, 288.15 K): 0.0114
solubility (mole fraction) (in ethyl acetate, 293.15 K): 0.0128
solubility (mole fraction) (in ethyl acetate, 298.15 K): 0.0146
solubility (mole fraction) (in ethyl acetate, 303.15 K): 0.016
solubility (mole fraction) (in ethyl acetate, 308.15 K): 0.0181
solubility (mole fraction) (in ethyl acetate, 313.15 K): 0.0203
solubility (mole fraction) (in ethyl acetate, 318.15 K): 0.0233
solubility (mole fraction) (in ethyl acetate, 323.15 K): 0.0265
solubility (mole fraction) (in methyl acetate, 278.15 K): 0.00616
solubility (mole fraction) (in methyl acetate, 283.15 K): 0.00707
solubility (mole fraction) (in methyl acetate, 288.15 K): 0.00797
solubility (mole fraction) (in methyl acetate, 293.15 K): 0.0094
solubility (mole fraction) (in methyl acetate, 298.15 K): 0.0108
solubility (mole fraction) (in methyl acetate, 303.15 K): 0.0124
solubility (mole fraction) (in methyl acetate, 308.15 K): 0.0142
solubility (mole fraction) (in methyl acetate, 313.15 K): 0.0164
solubility (mole fraction) (in methyl acetate, 318.15 K): 0.0188
solubility (mole fraction) (in methyl acetate, 323.15 K): 0.022
solubility (mole fraction) (in n-butanol, 278.15 K): 0.00644
solubility (mole fraction) (in n-butanol, 283.15 K): 0.00761
solubility (mole fraction) (in n-butanol, 288.15 K): 0.00853
solubility (mole fraction) (in n-butanol, 293.15 K): 0.00972
solubility (mole fraction) (in n-butanol, 298.15 K): 0.0112
solubility (mole fraction) (in n-butanol, 303.15 K): 0.0129
solubility (mole fraction) (in n-butanol, 308.15 K): 0.0145
solubility (mole fraction) (in n-butanol, 313.15 K): 0.0164
solubility (mole fraction) (in n-butanol, 318.15 K): 0.0192
solubility (mole fraction) (in n-butanol, 323.15 K): 0.0217
solubility (mole fraction) (in n-butyl acetate, 278.15 K): 0.0121
solubility (mole fraction) (in n-butyl acetate, 283.15 K): 0.0136
solubility (mole fraction) (in n-butyl acetate, 288.15 K): 0.0147
solubility (mole fraction) (in n-butyl acetate, 293.15 K): 0.0164
solubility (mole fraction) (in n-butyl acetate, 298.15 K): 0.0182
solubility (mole fraction) (in n-butyl acetate, 303.15 K): 0.02
solubility (mole fraction) (in n-butyl acetate, 308.15 K): 0.0228
solubility (mole fraction) (in n-butyl acetate, 313.15 K): 0.0255
solubility (mole fraction) (in n-butyl acetate, 318.15 K): 0.0276
solubility (mole fraction) (in n-butyl acetate, 323.15 K): 0.0314
solubility (mole fraction) (in n-pentanol, 278.15 K): 0.00737
solubility (mole fraction) (in n-pentanol, 283.15 K): 0.00904
solubility (mole fraction) (in n-pentanol, 288.15 K): 0.0107
solubility (mole fraction) (in n-pentanol, 293.15 K): 0.0121
solubility (mole fraction) (in n-pentanol, 298.15 K): 0.0135
solubility (mole fraction) (in n-pentanol, 303.15 K): 0.0152
solubility (mole fraction) (in n-pentanol, 308.15 K): 0.0177
solubility (mole fraction) (in n-pentanol, 313.15 K): 0.0203
solubility (mole fraction) (in n-pentanol, 318.15 K): 0.0234
solubility (mole fraction) (in n-pentanol, 323.15 K): 0.0264
solubility (mole fraction) (in n-pentyl acetate, 278.15 K): 0.0131
solubility (mole fraction) (in n-pentyl acetate, 283.15 K): 0.0143
solubility (mole fraction) (in n-pentyl acetate, 288.15 K): 0.0162
solubility (mole fraction) (in n-pentyl acetate, 293.15 K): 0.0176
solubility (mole fraction) (in n-pentyl acetate, 298.15 K): 0.0198
solubility (mole fraction) (in n-pentyl acetate, 303.15 K): 0.0221
solubility (mole fraction) (in n-pentyl acetate, 308.15 K): 0.024
solubility (mole fraction) (in n-pentyl acetate, 313.15 K): 0.0269
solubility (mole fraction) (in n-pentyl acetate, 318.15 K): 0.0298
solubility (mole fraction) (in n-pentyl acetate, 323.15 K): 0.0334
solubility (mole fraction) (in n-propanol, 278.15 K): 0.00577
solubility (mole fraction) (in n-propanol, 283.15 K): 0.00645
solubility (mole fraction) (in n-propanol, 288.15 K): 0.00734
solubility (mole fraction) (in n-propanol, 293.15 K): 0.0083
solubility (mole fraction) (in n-propanol, 298.15 K): 0.00928
solubility (mole fraction) (in n-propanol, 303.15 K): 0.0109
solubility (mole fraction) (in n-propanol, 308.15 K): 0.0123
solubility (mole fraction) (in n-propanol, 313.15 K): 0.0148
solubility (mole fraction) (in n-propanol, 318.15 K): 0.0168
solubility (mole fraction) (in n-propanol, 323.15 K): 0.019
solubility (mole fraction) (in n-propyl acetate, 278.15 K): 0.0114
solubility (mole fraction) (in n-propyl acetate, 283.15 K): 0.0128
solubility (mole fraction) (in n-propyl acetate, 288.15 K): 0.014
solubility (mole fraction) (in n-propyl acetate, 293.15 K): 0.0157
solubility (mole fraction) (in n-propyl acetate, 298.15 K): 0.0174
solubility (mole fraction) (in n-propyl acetate, 303.15 K): 0.0194
solubility (mole fraction) (in n-propyl acetate, 308.15 K): 0.0219
solubility (mole fraction) (in n-propyl acetate, 313.15 K): 0.0246
solubility (mole fraction) (in n-propyl acetate, 318.15 K): 0.027
solubility (mole fraction) (in n-propyl acetate, 323.15 K): 0.0305
